Data reported in US11571413B2, “Nicotinamide riboside treatments of domesticated meat animals” (Kansas State University Research Foundation, priority 2017, dated 2023).
Marks after values point to notes of the source that are not given here.

Test system: Fertilized Cobb 500 broiler eggs
Experiment: In ovo NR dose, time course of body and pectoralis major morphometrics at E15, E19, hatch (second Example VI)
Type: in vivo, chicken
Procedure: Fertilized Cobb 500 broiler eggs (N=247; Cobb Vantress, Siloam Springs, Ark.) were transported to Kansas State University Muscle Biology Laboratory (Manhattan, Kans.), egg weights were recorded, and within each 4 egg strata eggs were randomly assigned to an NR treatment (0 mM, 250 mM, 500 mM, or 1 M NR). After treatment allocation, eggs were put onto trays and placed in a Sportsman 1502 incubator (GQF Manufacturing Company Inc., Savannah, Ga.) set to operate at 37° C. and 40±4% relative humidity. Trays were rotated hourly to reposition eggs and egg weights were recorded daily to determine percentage weight loss with a standard daily weight loss ranging from 0.65% to 0.75%.
At d 10 of incubation, the methods of Gonzalez and Jackson (2020) were followed for treatment administration. Eggs were briefly removed from the incubator and prior to injection, the injection site was cleaned with 70% ethanol. […] of 0.9% sterile saline was injected into yolk sac of each egg with a 2.54-cm, 20-guage injection needle inserted approximately 1-cm into injection site. The injection site was covered with a 1-cm^2 portion of medical tape (Nexcare; 3M, Maplewood, Minn.) and placed back into the incubator under the conditions described above. At d 18 of incubation, egg were removed from their trays, placed in hatching boxes, and the humidity of the incubator was increased to 60±2%.
At three time points, E (i.e., embryonic day 15, day 15 after the beginning of incubation), E19, and 24 hours post-hatching, embryos and chicks were euthanized by exposure to CO2 and decapitation. Crown to rump length (CR), head width and head length were measured by calipers (Traceable Digital Calipers; Fisher Scientific, Pittsburg, Pa.). Head and chest circumference were collected by curling a string around the target area and measuring the length of the curled string by a ruler. Chicks chest were sprayed with 70% ethanol, were skinned to expose the PMM, and chest width and length were measured by calipers. Both sides of the PMM were removed and the left side was weighed, followed by length, width, and thickness measurement collection. Following measurement collection, the left PMM was submerged in optimal cutting temperature tissue freezing medium compound, slowly frozen at −20° C. for 1 h, and stored at −80° C. until cryosectioning. The right side of PMM was stored in a 1.5 ml microcentrifuge tube and stored at −80° C. until NAD+ analysis. At last, the heart and liver of each chick were removed, weighed, and discarded.

[1] = 250 mM NR into yolk sac d 10, E15 embryos
[2] = 250 mM NR into yolk sac d 10, E19 embryos
[3] = 250 mM NR into yolk sac d 10, hatched chicks
[4] = 500 mM NR into yolk sac d 10, E15 embryos
[5] = 500 mM NR into yolk sac d 10, E19 embryos
[6] = 500 mM NR into yolk sac d 10, hatched chicks
[7] = 1,000 mM NR into yolk sac d 10, E15 embryos
[8] = 1,000 mM NR into yolk sac d 10, E19 embryos
[9] = 1,000 mM NR into yolk sac d 10, hatched chicks
[10] = E19 embryos, 250 to 1,000 mM NR

Question: What does the source list for `NC(=O)c1ccc[n+]([C@@H]2O[C@H](CO)[C@@H](O)[C@H]2O)c1` [Nicotinamide riboside, nicotinamide riboside]?
Answer: Body weight [1]: 14.5 g; Crown-rump length [1]: 61.4 mm; Head length [1]: 17.6 mm; Head width [1]: 13.7 mm; Heart weight [1]: 0.14 g; Liver weight [1]: 0.27 g; Pectoralis major depth [1]: 7.2 mm; Pectoralis major length [1]: 18.3 mm; Pectoralis major weight [1]: 0.81 g; Pectoralis major width [1]: 14.7 mm; Body weight [2]: 37.7 g; Chest circumference [2]: 59.5 mm; Chest length [2]: 18.6 mm; Chest width [2]: 15.5 mm; Crown-rump length [2]: 84.3 mm; Head circumference [2]: 53.2^a,c mm; Head length [2]: 17.7 mm; Head width [2]: 15.4 mm; Heart weight [2]: 0.22 g; Liver weight [2]: 0.64 g; Pectoralis major depth [2]: 2.9 mm; Pectoralis major length [2]: 17.2^b mm; Pectoralis major weight [2]: 0.17^b g; Pectoralis major width [2]: 5.5 mm; Body weight [3]: 46.9 g; Chest circumference [3]: 61.2 mm; Chest length [3]: 21.9 mm; Chest width [3]: 17.1^b mm; Crown-rump length [3]: 95.4 mm; Head circumference [3]: 55.7 mm; Head length [3]: 18.7^b mm; Head width [3]: 15.5 mm; Heart weight [3]: 0.31 g; Liver weight [3]: 0.84 g; Pectoralis major depth [3]: 3.1^a,b mm; Pectoralis major length [3]: 19.9^b mm; Pectoralis major weight [3]: 0.23^b g; Pectoralis major width [3]: 5.5^b mm; Body weight [4]: 14.2 g; Crown-rump length [4]: 61.1 mm; Head length [4]: 17.8 mm; Head width [4]: 13.7 mm; Heart weight [4]: 0.13 g; Liver weight [4]: 0.25 g; Pectoralis major depth [4]: 7.1 mm; Pectoralis major length [4]: 17.8 mm; Pectoralis major weight [4]: 0.82 g; Pectoralis major width [4]: 15.2 mm; Body weight [5]: 37.9 g; Chest circumference [5]: 60.1 mm; Chest length [5]: 18.5 mm; Chest width [5]: 16.3 mm; Crown-rump length [5]: 85.9 mm; Head circumference [5]: 54.8^b,c mm; Head length [5]: 17.4 mm; Head width [5]: 15.3 mm; Heart weight [5]: 0.22 g; Liver weight [5]: 0.64 g; Pectoralis major depth [5]: 2.7 mm; Pectoralis major length [5]: 17.7^b mm; Pectoralis major weight [5]: 0.18^b g; Pectoralis major width [5]: 5.7 mm; Body weight [6]: 46.1 g; Chest circumference [6]: 62.5 mm; Chest length [6]: 21.2 mm; Chest width [6]: 16.6^a,b mm; Crown-rump length [6]: 95.0 mm; Head circumference [6]: 55.6 mm; Head length [6]: 18.2^a,b mm; Head width [6]: 15.7 mm; Heart weight [6]: 0.31 g; Liver weight [6]: 0.90 g; Pectoralis major depth [6]: 3.3^b mm; Pectoralis major length [6]: 20.3^b mm; Pectoralis major weight [6]: 0.23^b g; Pectoralis major width [6]: 5.6^b mm; Body weight [7]: 13.9 g; Crown-rump length [7]: 61.0 mm; Head length [7]: 17.4 mm; Head width [7]: 14.0 mm; Heart weight [7]: 0.14 g; Liver weight [7]: 0.28 g; Pectoralis major depth [7]: 6.6 mm; Pectoralis major length [7]: 18.5 mm; Pectoralis major weight [7]: 0.84 g; Pectoralis major width [7]: 14.9 mm; Body weight [8]: 38.1 g; Chest circumference [8]: 61.5 mm; Chest length [8]: 18.3 mm; Chest width [8]: 15.4 mm; Crown-rump length [8]: 86.3 mm; Head circumference [8]: 55.0^b mm; Head length [8]: 17.6 mm; Head width [8]: 15.4 mm; Heart weight [8]: 0.23 g; Liver weight [8]: 0.63 g; Pectoralis major depth [8]: 2.9 mm; Pectoralis major length [8]: 17.6^b mm; Pectoralis major weight [8]: 0.17^b g; Pectoralis major width [8]: 5.6 mm; Body weight [9]: 46.6 g; Chest circumference [9]: 61.4 mm; Chest length [9]: 21.1 mm; Chest width [9]: 16.1^a mm; Crown-rump length [9]: 93.0 mm; Head circumference [9]: 53.9 mm; Head length [9]: 17.8^a mm; Head width [9]: 15.5 mm; Heart weight [9]: 0.32 g; Liver weight [9]: 0.96 g; Pectoralis major depth [9]: 3.0^a mm; Pectoralis major length [9]: 19.1^a,b mm; Pectoralis major weight [9]: 0.22^b g; Pectoralis major width [9]: 5.4^b mm; Increase of PMM length (minimum over NR doses) [10]: ≥ 13%; Increase of PMM weight (minimum over NR doses) [10]: ≥ 21%; Increase in PMM depth (at hatch): 18%; Increase in PMM length (at hatch): 13%; Increase in PMM width (at hatch): 17%; PMM weight advantage (at hatch): 35%
